pIC50: −log10 of the molar value. Read-outs that look alike come from different tables or passages of the source.
What was measured:
[1] = test system: MLKL phosphorylation in HT29-L23 human colorectal adenocarcinoma cells; experiment: MLKL Phosphorylation High-Content Assay; type: cell-based; conditions: Homo sapiens
Outline: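 IC50 and Ymax obtained by 4-parameter logistic fitting of MLKL phosphorylation, measured as mean circ-ring average intensity ratio from high-content images. Staining used an anti-phospho-S358 MLKL antibody overnight at 4° C., following six-hour cell incubation at 37° C.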

[2] = molecular target: T1, His-GST-TVMV-hRIPK1(1-324) (Homo sapiens, UniProt Q13546); experiment: RIPK1 HTRF Binding Assay
T1 construct: The coding region of human RIPK1(1-324) flanked by NdeI site at 5′ end; made in house; host or cells: Spodoptera frugiperda (Sf9) insect cells, baculovirus
T1 sequence (Q13546 1-324): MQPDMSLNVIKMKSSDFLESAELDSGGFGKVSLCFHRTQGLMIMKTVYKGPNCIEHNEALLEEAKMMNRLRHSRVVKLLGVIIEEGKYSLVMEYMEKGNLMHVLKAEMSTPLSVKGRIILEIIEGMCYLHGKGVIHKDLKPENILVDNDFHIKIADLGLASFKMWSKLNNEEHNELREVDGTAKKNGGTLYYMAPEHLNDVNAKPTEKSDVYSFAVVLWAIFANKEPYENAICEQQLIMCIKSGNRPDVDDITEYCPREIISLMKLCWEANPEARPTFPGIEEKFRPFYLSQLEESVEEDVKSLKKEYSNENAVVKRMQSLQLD

[3] = x marks IC50 class 20-200 nM, read-out: pMLKL cell activity 20-200 nM
[4] = x marks IC50 class 20-200 nM, read-out: RIPK1 HTRF binding 20-200 nM
[5] = x marks IC50 class >200 nM, read-out: pMLKL cell activity >200 nM
[6] = x marks IC50 class <20 nM, read-out: RIPK1 HTRF binding <20 nM
[7] = x marks IC50 class <20 nM, read-out: pMLKL cell activity <20 nM

Compound: COc1ncc(-c2ccn3nc(N)nc3c2)cc1C(=O)N1CCCC(Cc2cccc(F)c2)C1 (stereo not shown) [Example 118, 7-(5-{3-[(3-fluorophenyl)methyl]piperidine-1-carbonyl}-6-methoxypyridin-3-yl)-[1,2,4]triazolo[1,5-a]pyridin-2-amine]
- pIC50 [1, 3]: 6.70 to 7.70
- pIC50 [2, 4]: 6.70 to 7.70

Compound: COc1ncc(-c2ccn3nc(N)nc3c2)cc1C(=O)NCc1cccc(C(F)(F)F)c1 [Example 119, 5-{2-amino-[1,2,4]triazolo[1,5-a]pyridin-7-yl}-2-methoxy-N-{[3-(trifluoromethyl)phenyl]methyl}pyridine-3-carboxamide]
- pIC50 [1, 5]: < 6.70
- pIC50 [2, 4]: 6.70 to 7.70

Compound: COc1ccc(CC2CCCN(C(=O)c3cc(-c4ccn5nc(N)nc5c4)cnc3OC)C2)cc1 (stereo not shown) [Example 120, 7-(6-methoxy-5-{3-[(4-methoxyphenyl)methyl]piperidine-1-carbonyl}pyridin-3-yl)-[1,2,4]triazolo[1,5-a]pyridin-2-amine]
- pIC50 [1, 3]: 6.70 to 7.70
- pIC50 [2, 4]: 6.70 to 7.70

Compound: COc1ncc(-c2ccn3nc(N)nc3c2)cc1C(=O)N1CCCC(Cc2ccc(C)cc2)C1 (stereo not shown) [Example 121, 7-(6-methoxy-5-{3-[(4-methylphenyl)methyl]piperidine-1-carbonyl}pyridin-3-yl)-[1,2,4]triazolo[1,5-a]pyridin-2-amine]
- pIC50 [1, 3]: 6.70 to 7.70
- pIC50 [2, 4]: 6.70 to 7.70

Compound: COc1ncc(-c2ccn3nc(N)nc3c2)cc1C(=O)NCc1c(F)cc(F)cc1OCC1CCCC1 [Example 122, 5-{2-amino-[1,2,4]triazolo[1,5-a]pyridin-7-yl}-N-{[2-(cyclopentylmethoxy)-4,6-difluorophenyl]methyl}-2-methoxypyridine-3-carboxamide]
- pIC50 [1, 3]: 6.70 to 7.70
- pIC50 [2, 6]: > 7.70

Compound: COc1ncc(-c2ccn3nc(N)nc3c2)cc1C(=O)NCc1ccccc1OCC1CCCCC1 [Example 123, 5-{2-amino-[1,2,4]triazolo[1,5-a]pyridin-7-yl}-N-{[2-(cyclohexylmethoxy)phenyl]methyl}-2-methoxypyridine-3-carboxamide]
- pIC50 [1, 3]: 6.70 to 7.70
- pIC50 [2, 6]: > 7.70

Compound: COc1ncc(-c2ccn3nc(N)nc3c2)cc1C(=O)NCc1ncccc1OCC1CCCC1 [Example 124, 5-{2-amino-[1,2,4]triazolo[1,5-a]pyridin-7-yl}-N-{[3-(cyclopentylmethoxy)pyridin-2-yl]methyl}-2-methoxypyridine-3-carboxamide]
- pIC50 [1, 3]: 6.70 to 7.70
- pIC50 [2, 6]: > 7.70

Compound: COc1ncc(-c2ccn3nc(N)nc3c2)cc1C(=O)NCc1ccccc1OC(C)C1CCCC1 (stereo not shown) [Example 125, 5-{2-amino-[1,2,4]triazolo[1,5-a]pyridin-7-yl}-N-{[2-(1-cyclopentylethoxy)phenyl]methyl}-2-methoxypyridine-3-carboxamide]
- pIC50 [1, 3]: 6.70 to 7.70
- pIC50 [2, 6]: > 7.70

Compound: COc1ncc(-c2ccn3nc(N)nc3c2)cc1C(=O)NCc1c(F)cccc1OCC1CCCC1 [Example 126, 5-{2-amino-[1,2,4]triazolo[1,5-a]pyridin-7-yl}-N-{[2-(cyclopentylmethoxy)-6-fluorophenyl]methyl}-2-methoxypyridine-3-carboxamide]
- pIC50 [1, 3]: 6.70 to 7.70
- pIC50 [2, 6]: > 7.70

Compound: COc1ncc(-c2ccn3nc(N)nc3c2)cc1C(=O)NCc1cccnc1OCC1CCCC1 [Example 127, 5-{2-amino-[1,2,4]triazolo[1,5-a]pyridin-7-yl}-N-{[2-(cyclopentylmethoxy)pyridin-3-yl]methyl}-2-methoxypyridine-3-carboxamide]
- pIC50 [1, 3]: 6.70 to 7.70
- pIC50 [2, 6]: > 7.70

Compound: COc1ncc(-c2ccn3nc(N)nc3c2)cc1C(=O)NCc1cc(F)cc(F)c1OCC1CCCC1 [Example 128, 5-{2-amino-[1,2,4]triazolo[1,5-a]pyridin-7-yl}-N-{[2-(cyclopentylmethoxy)-3,5-difluorophenyl]methyl}-2-methoxypyridine-3-carboxamide]
- pIC50 [1, 7]: > 7.70
- pIC50 [2, 6]: > 7.70

Compound: COc1ncc(-c2ccn3nc(N)nc3c2)cc1C(=O)NCc1cc(F)ccc1OCC1CCCC1 [Example 129, 5-{2-amino-[1,2,4]triazolo[1,5-a]pyridin-7-yl}-N-{[2-(cyclopentylmethoxy)-5-fluorophenyl]methyl}-2-methoxypyridine-3-carboxamide]
- pIC50 [1, 3]: 6.70 to 7.70
- pIC50 [2, 6]: > 7.70

Compound: COc1ncc(-c2ccn3nc(N)nc3c2)cc1C(=O)NCc1ccc(F)cc1OCC1CCCC1 [Example 130, 5-{2-amino-[1,2,4]triazolo[1,5-a]pyridin-7-yl}-N-{[2-(cyclopentylmethoxy)-4-fluorophenyl]methyl}-2-methoxypyridine-3-carboxamide]
- pIC50 [1, 3]: 6.70 to 7.70
- pIC50 [2, 6]: > 7.70

Compound: COc1ncc(-c2ccn3nc(N)nc3c2)cc1C(=O)NCc1ncccc1OCC1CC1 [Example 132, 5-{2-amino-[1,2,4]triazolo[1,5-a]pyridin-7-yl}-N-{[3-(cyclopropylmethoxy)pyridin-2-yl]methyl}-2-methoxypyridine-3-carboxamide]
- pIC50 [1, 3]: 6.70 to 7.70
- pIC50 [2, 4]: 6.70 to 7.70

Compound: CCc1ccccc1CNC(=O)c1cc(-c2ccn3nc(N)nc3c2)cnc1OC [Example 133, 5-{2-amino-[1,2,4]triazolo[1,5-a]pyridin-7-yl}-N-[(2-ethylphenyl)methyl]-2-methoxypyridine-3-carboxamide]
- pIC50 [1, 5]: < 6.70
- pIC50 [2, 4]: 6.70 to 7.70

Compound: COc1ncc(-c2ccn3nc(N)nc3c2)cc1C(=O)N1CCC[C@H](Cc2ccc(F)cc2)C1 [Example 134, 7-{5-[(3R)-3-[(4-fluorophenyl)methyl]piperidine-1-carbonyl]-6-methoxypyridin-3-yl}-[1,2,4]triazolo[1,5-a]pyridin-2-amine]
- pIC50 [1, 7]: > 7.70
- pIC50 [2, 4]: 6.70 to 7.70

Compound: COc1ncc(-c2ccn3nc(N)nc3c2)cc1C(=O)NCc1cccnc1OC1CCCC1 [Example 135, 5-{2-amino-[1,2,4]triazolo[1,5-a]pyridin-7-yl}-N-{[2-(cyclopentyloxy)pyridin-3-yl]methyl}-2-methoxypyridine-3-carboxamide]
- pIC50 [1, 7]: > 7.70
- pIC50 [2, 6]: > 7.70

Compound: COc1ncc(-c2ccn3nc(N)nc3c2)cc1C(=O)NCc1cccnc1OCC1CCC1 [Example 137, 5-{2-amino-[1,2,4]triazolo[1,5-a]pyridin-7-yl}-N-{[2-(cyclobutylmethoxy)pyridin-3-yl]methyl}-2-methoxypyridine-3-carboxamide]
- pIC50 [1, 3]: 6.70 to 7.70
- pIC50 [2, 6]: > 7.70

Compound: COc1ncc(-c2ccn3nc(N)nc3c2)cc1C(=O)NCc1ccccc1OCC1CCCC1 [Example 138, 5-{2-amino-[1,2,4]triazolo[1,5-a]pyridin-7-yl}-N-{[2-(cyclopentylmethoxy)phenyl]methyl}-2-methoxypyridine-3-carboxamide]
- pIC50 [1, 3]: 6.70 to 7.70
- pIC50 [2, 6]: > 7.70

Compound: COc1ncc(-c2ccn3nc(N)nc3c2)cc1C(=O)NCc1cccc(OC(C)C)c1 [Example 139, 5-{2-amino-[1,2,4]triazolo[1,5-a]pyridin-7-yl}-2-methoxy-N-{[3-(propan-2-yloxy)phenyl]methyl}pyridine-3-carboxamide]
- pIC50 [1, 3]: 6.70 to 7.70
- pIC50 [2, 6]: > 7.70

Compound: COc1ncc(-c2ccn3nc(N)nc3c2)cc1C(=O)NCc1ccccc1OC1CCOC1 (stereo not shown) [Example 140, 5-{2-amino-[1,2,4]triazolo[1,5-a]pyridin-7-yl}-2-methoxy-N-{[2-(oxolan-3-yloxy)phenyl]methyl}pyridine-3-carboxamide]
- pIC50 [1, 3]: 6.70 to 7.70
- pIC50 [2, 6]: > 7.70

Compound: COc1ncc(-c2ccn3nc(N)nc3c2)cc1C(=O)NCc1ncccc1OC1CCCC1 [Example 141, 5-{2-amino-[1,2,4]triazolo[1,5-a]pyridin-7-yl}-N-{[3-(cyclopentyloxy)pyridin-2-yl]methyl}-2-methoxypyridine-3-carboxamide]
- pIC50 [1, 3]: 6.70 to 7.70
- pIC50 [2, 6]: > 7.70

Compound: COc1ncc(-c2ccn3nc(N)nc3c2)cc1C(=O)NCc1cc(F)ccc1OC1CCCC1 [Example 142, 5-{2-amino-[1,2,4]triazolo[1,5-a]pyridin-7-yl}-N-{[2-(cyclopentyloxy)-5-fluorophenyl]methyl}-2-methoxypyridine-3-carboxamide]
- pIC50 [1, 7]: > 7.70
- pIC50 [2, 6]: > 7.70

Compound: COc1ncc(-c2ccn3nc(N)nc3c2)cc1C(=O)NCc1ccccc1SC(C)C [Example 143, 5-{2-amino-[1,2,4]triazolo[1,5-a]pyridin-7-yl}-2-methoxy-N-{[2-(propan-2-ylsulfanyl)phenyl]methyl}pyridine-3-carboxamide]
- pIC50 [1, 7]: > 7.70
- pIC50 [2, 6]: > 7.70

Compound: COc1ncc(-c2ccn3nc(N)nc3c2)cc1C(=O)NCc1ccccc1OC(C)C [Example 144, 5-{2-amino-[1,2,4]triazolo[1,5-a]pyridin-7-yl}-2-methoxy-N-{[2-(propan-2-yloxy)phenyl]methyl}pyridine-3-carboxamide]
- pIC50 [1, 3]: 6.70 to 7.70
- pIC50 [2, 6]: > 7.70

Compound: COc1ncc(-c2ccn3nc(N)nc3c2)cc1C(=O)NCc1ccc(F)cc1OCC1CC1 [Example 145, 5-{2-amino-[1,2,4]triazolo[1,5-a]pyridin-7-yl}-N-{[2-(cyclopropylmethoxy)-4-fluorophenyl]mehtyl}-2-methoxypyridine-3-carboxaamide]
- pIC50 [1, 3]: 6.70 to 7.70
- pIC50 [2, 6]: > 7.70

— patent US10913738B2 (BRISTOL-MYERS SQUIBB COMPANY, priority 2017, dated 2021)
